Assay results published in ChEMBL document CHEMBL1201862, “PubChem BioAssay data set” (2004).
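96-well plates; 48 h exposure; 5 concentrations. Endpoints by linear interpolation between flanking doses. Not reached: highest tested concentration assigned. Here, GI50 denotes the concentration required for 50% inhibition of growth.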 Active and inactive are the calls of the source. No stated cut-off is given here; in the data, active = GI50 up to about 1.1 µM and inactive = higher.

Legend:
Assay in all cases: inhibition of tumour cell growth, NCI panel, 48 h
[1] = test system: HCC 2998
[2] = test system: MDA-MB-231
[3] = test system: ACHN
[4] = test system: K562
[5] = test system: EKVX
[6] = test system: Hs-578T
[7] = test system: UO-31
[8] = test system: NCI-H522
[9] = test system: SK-OV-3
[10] = test system: OVCAR-5
[11] = test system: HOP-92
[12] = test system: COLO 205
[13] = test system: LOX IMVI
[14] = test system: SNB-75
[15] = test system: HOP-62
[16] = test system: MDA-N
[17] = test system: MDA-MB-435
[18] = test system: DU-145
[19] = test system: Malme-3M
[20] = test system: TK-10
[21] = test system: NCI-H226
[22] = test system: SF-539
[23] = test system: NCI-H23
[24] = test system: MCF7
[25] = test system: UACC-257
[26] = test system: SF-295
[27] = test system: SK-MEL-5
[28] = test system: BT-549
[29] = test system: RXF 393
[30] = test system: UACC-62
[31] = test system: RPMI-8226
[32] = test system: M14
[33] = test system: OVCAR-4
[34] = test system: U-251
[35] = test system: NCI-H460
[36] = test system: NCI/ADR-RES
[37] = test system: SK-MEL-2
[38] = test system: A498
[39] = test system: 786-0
[40] = test system: SF-268
[41] = test system: SN12C
[42] = test system: A549
[43] = test system: MOLT-4
[44] = test system: CAKI-1
[45] = test system: HCT-15
[46] = test system: T47D
[47] = test system: PC-3
[48] = test system: IGROV-1
[49] = test system: HCT-116
[50] = test system: OVCAR-8
[51] = test system: HT-29
[52] = test system: OVCAR-3
[53] = test system: SNB-19
[54] = test system: KM12
[55] = test system: SK-MEL-28
[56] = test system: SW-620
[57] = test system: CCRF-CEM
[58] = test system: HL-60

Cc1c2c(c(C)n1-c1ccccc1)C(=O)N(CCN1CCN(c3cccc(C(F)(F)F)c3)CC1)C2=O
GI50 [1]: 97.5 µM (inactive)
GI50 [2]: > 100 µM (inactive)
GI50 [3]: > 100 µM (inactive)
GI50 [4]: 5.92 µM (inactive)
GI50 [5]: 8.02 µM (inactive)
GI50 [6]: > 100 µM (inactive)
GI50 [7]: 48.6 µM (inactive)
GI50 [8]: 14.1 µM (inactive)
GI50 [9]: > 100 µM (inactive)
GI50 [10]: > 100 µM (inactive)
GI50 [11]: > 100 µM (inactive)
GI50 [12]: 17.1 µM (inactive)
GI50 [13]: 37.1 µM (inactive)
GI50 [14]: > 100 µM (inactive)
GI50 [15]: > 100 µM (inactive)
GI50 [16]: 71.1 µM (inactive)
GI50 [17]: > 100 µM (inactive)
GI50 [18]: > 100 µM (inactive)
GI50 [19]: > 100 µM (inactive)
GI50 [20]: > 100 µM (inactive)
GI50 [21]: > 100 µM (inactive)
GI50 [22]: 87.1 µM (inactive)
GI50 [23]: 7.94 µM (inactive)
GI50 [24]: 7.71 µM (inactive)
GI50 [25]: 7.67 µM (inactive)
GI50 [26]: 50.1 µM (inactive)
GI50 [27]: 5.25 µM (inactive)
GI50 [28]: > 100 µM (inactive)
GI50 [29]: > 100 µM (inactive)
GI50 [30]: > 100 µM (inactive)
GI50 [31]: 21.5 µM (inactive)
GI50 [32]: > 100 µM (inactive)
GI50 [33]: 7.35 µM (inactive)
GI50 [34]: 31.3 µM (inactive)
GI50 [35]: 45.3 µM (inactive)
GI50 [36]: 59.4 µM (inactive)
GI50 [37]: 0.719 µM (active)
GI50 [38]: > 100 µM (inactive)
GI50 [39]: 71.8 µM (inactive)
GI50 [40]: > 100 µM (inactive)
GI50 [41]: 45 µM (inactive)
GI50 [42]: 46.6 µM (inactive)
GI50 [43]: 6.03 µM (inactive)
GI50 [44]: 84.7 µM (inactive)
GI50 [45]: 17.7 µM
GI50 [46]: 4.29 µM (inactive)
GI50 [47]: 18.8 µM (inactive)
GI50 [48]: > 100 µM (inactive)
GI50 [49]: 8.36 µM (inactive)
GI50 [50]: 76.4 µM (inactive)
GI50 [51]: 10.6 µM (inactive)
GI50 [52]: > 100 µM (inactive)
GI50 [53]: > 100 µM (inactive)
GI50 [54]: 30.5 µM (inactive)

N#Cc1cccc(Nc2ccccc2SSc2ccccc2Nc2cccc(C#N)c2)c1
GI50 [1]: 16.6 µM (inactive)
GI50 [55]: 13.3 µM (inactive)
GI50 [2]: 12.2 µM (inactive)
GI50 [56]: 3.48 µM (inactive)
GI50 [3]: 8.73 µM (inactive)
GI50 [4]: 5.12 µM (inactive)
GI50 [5]: 13.9 µM (inactive)
GI50 [6]: 6.97 µM (inactive)
GI50 [7]: 4.97 µM (inactive)
GI50 [8]: 8.11 µM (inactive)
GI50 [9]: 13.5 µM (inactive)
GI50 [10]: 17.5 µM (inactive)
GI50 [11]: 7.89 µM (inactive)
GI50 [12]: > 10 µM (inactive)
GI50 [13]: 2.73 µM (inactive)
GI50 [14]: 8.59 µM (inactive)
GI50 [15]: 11.9 µM (inactive)
GI50 [16]: 9.23 µM (inactive)
GI50 [17]: 8.69 µM (inactive)
GI50 [18]: 19 µM (inactive)
GI50 [19]: 11 µM (inactive)
GI50 [57]: 2.94 µM (inactive)
GI50 [20]: 19.3 µM (inactive)
GI50 [21]: 10.3 µM (inactive)
GI50 [22]: 8.79 µM (inactive)
GI50 [23]: 11.7 µM (inactive)
GI50 [24]: 7.52 µM (inactive)
GI50 [25]: 13.6 µM (inactive)
GI50 [26]: 13.2 µM (inactive)
GI50 [27]: 9.04 µM (inactive)
GI50 [28]: > 10 µM (inactive)
GI50 [29]: > 10 µM (inactive)
GI50 [30]: 7.1 µM (inactive)
GI50 [31]: 3.93 µM (inactive)
GI50 [32]: 7.55 µM (inactive)
GI50 [33]: 10.7 µM (inactive)
GI50 [34]: 5.92 µM (inactive)
GI50 [35]: 7.71 µM (inactive)
GI50 [36]: 8.79 µM (inactive)
GI50 [37]: > 10 µM (inactive)
GI50 [38]: 9.89 µM (inactive)
GI50 [39]: 3.91 µM (inactive)
GI50 [40]: 4.93 µM (inactive)
GI50 [41]: 7.59 µM (inactive)
GI50 [42]: 11.3 µM (inactive)
GI50 [43]: 3.13 µM (inactive)
GI50 [44]: 9.02 µM (inactive)
GI50 [45]: 10.4 µM
GI50 [46]: 12.3 µM (inactive)
GI50 [47]: 4.82 µM (inactive)
GI50 [48]: 8.65 µM (inactive)
GI50 [49]: 9.06 µM (inactive)
GI50 [58]: 4.76 µM (inactive)
GI50 [50]: 8.11 µM (inactive)
GI50 [51]: 11.4 µM (inactive)
GI50 [52]: 9.12 µM (inactive)
GI50 [53]: 7.76 µM (inactive)
GI50 [54]: 9.46 µM (inactive)
